Patent US20160184356A1, “ARSENIC-BASED TREATMENT OF CANCERS AND INFLAMMATORY DISORDERS” (STC.UNM, priority 2013, published 2016)
Read-outs that look alike come from different tables or passages of the source.

Experiments:
[1] = target: T1, APTX (C2H2) zinc finger peptide (Homo sapiens, UniProt Q7Z2E3); type: binding
T1 construct: purchased Genemed Synthesis Inc. (San Antonio, Tex.); host or cells: chemical synthesis
T1 sequence (Q7Z2E3 330-356 limits assumed): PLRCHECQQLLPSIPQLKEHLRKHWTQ

[2] = target: T1, APTX (C2H2) zinc finger peptide; type: binding; remark: listed apart in the source
APTX protein = target: T2, APTX protein (Homo sapiens, UniProt Q7Z2E3); type: cell-based
T2 construct: APTX, PARP-1, and XPA protein were immunoprecipitated from cell extracts using corresponding antibodies; endogenous in cells; host or cells: HaCaT human keratinocytes
T2 sequence (Q7Z2E3 whole entry): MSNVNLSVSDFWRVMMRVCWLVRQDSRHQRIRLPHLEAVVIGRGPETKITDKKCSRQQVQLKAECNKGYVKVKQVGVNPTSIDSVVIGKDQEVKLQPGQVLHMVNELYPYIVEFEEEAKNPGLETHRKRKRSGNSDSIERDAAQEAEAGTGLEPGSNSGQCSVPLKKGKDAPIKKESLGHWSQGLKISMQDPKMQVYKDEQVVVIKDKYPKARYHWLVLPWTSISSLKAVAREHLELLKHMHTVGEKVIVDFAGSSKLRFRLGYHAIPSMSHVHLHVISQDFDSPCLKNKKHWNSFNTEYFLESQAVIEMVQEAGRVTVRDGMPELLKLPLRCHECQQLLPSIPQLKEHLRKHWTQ

[3] = target: T3, PARP-1 (C3H1) zinc finger peptide (Homo sapiens, UniProt P09874, DEL32-46); type: binding
T3 construct: purchased Genemed Synthesis Inc. (San Antonio, Tex.); host or cells: chemical synthesis
T3 sequence (P09874 with tags, fused parts or gaps DEL32-46 limits assumed): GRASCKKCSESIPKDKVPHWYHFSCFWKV

[4] = target: T4, XPA (C4) zinc finger peptide (Homo sapiens, UniProt P23025); type: binding
T4 construct: purchased Genemed Synthesis Inc. (San Antonio, Tex.); host or cells: chemical synthesis
T4 sequence (P23025 101-137 limits assumed): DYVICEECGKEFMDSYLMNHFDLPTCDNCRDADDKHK

[5] = target: T1, APTX (C2H2) zinc finger peptide; type: binding; remark: listed apart in the source
PARP-1 protein = target: T5, PARP-1 protein (Homo sapiens, UniProt P09874); type: cell-based
T5 construct: APTX, PARP-1, and XPA protein were immunoprecipitated from cell extracts using corresponding antibodies; endogenous in cells; host or cells: HaCaT human keratinocytes
T5 sequence (P09874 whole entry): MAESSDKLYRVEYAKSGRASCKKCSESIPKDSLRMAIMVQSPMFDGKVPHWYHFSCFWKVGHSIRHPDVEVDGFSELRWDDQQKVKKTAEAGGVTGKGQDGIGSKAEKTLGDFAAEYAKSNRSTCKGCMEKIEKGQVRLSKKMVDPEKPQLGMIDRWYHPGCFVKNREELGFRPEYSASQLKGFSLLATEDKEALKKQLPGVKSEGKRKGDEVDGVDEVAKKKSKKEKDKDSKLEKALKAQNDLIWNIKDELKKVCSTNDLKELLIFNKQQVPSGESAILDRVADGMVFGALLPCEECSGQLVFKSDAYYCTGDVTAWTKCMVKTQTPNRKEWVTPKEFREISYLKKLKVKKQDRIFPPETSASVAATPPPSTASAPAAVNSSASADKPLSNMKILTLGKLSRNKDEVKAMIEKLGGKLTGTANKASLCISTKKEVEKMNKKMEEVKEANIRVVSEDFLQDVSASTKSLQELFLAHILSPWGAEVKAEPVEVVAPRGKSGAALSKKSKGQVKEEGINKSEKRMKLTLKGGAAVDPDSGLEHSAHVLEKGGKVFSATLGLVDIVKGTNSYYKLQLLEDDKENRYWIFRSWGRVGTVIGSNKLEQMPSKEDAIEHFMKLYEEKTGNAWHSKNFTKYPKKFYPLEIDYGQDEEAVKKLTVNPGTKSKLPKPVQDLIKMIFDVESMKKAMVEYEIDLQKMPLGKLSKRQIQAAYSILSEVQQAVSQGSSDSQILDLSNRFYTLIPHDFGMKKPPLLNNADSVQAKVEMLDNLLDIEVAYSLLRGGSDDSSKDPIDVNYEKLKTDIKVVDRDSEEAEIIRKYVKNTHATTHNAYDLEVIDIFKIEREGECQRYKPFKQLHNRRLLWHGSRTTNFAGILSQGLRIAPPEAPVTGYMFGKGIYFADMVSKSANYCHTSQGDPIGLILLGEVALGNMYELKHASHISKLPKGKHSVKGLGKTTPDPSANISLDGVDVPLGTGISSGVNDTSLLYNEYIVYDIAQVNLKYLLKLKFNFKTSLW

[6] = target: T3, PARP-1 (C3H1) zinc finger peptide; type: binding; remark: listed apart in the source
[7] = target: T3, PARP-1 (C3H1) zinc finger peptide; type: binding; remark: listed apart in the source
PARP [8] = target: T6, PARP (Homo sapiens, UniProt P09874); design: host or cells: urothelial cells; conditions: 1 µM; cited from earlier work
[9] = target: T1, APTX (C2H2) zinc finger peptide; type: binding; remark: listed apart in the source
[10] = target: T4, XPA (C4) zinc finger peptide; type: binding; remark: listed apart in the source
[11] = target: T4, XPA (C4) zinc finger peptide; type: binding; remark: listed apart in the source
XPA protein = target: T7, XPA protein (Homo sapiens, UniProt P23025); type: cell-based
T7 construct: APTX, PARP-1, and XPA protein were immunoprecipitated from cell extracts using corresponding antibodies; endogenous in cells; host or cells: HaCaT human keratinocytes
T7 sequence (P23025 whole entry): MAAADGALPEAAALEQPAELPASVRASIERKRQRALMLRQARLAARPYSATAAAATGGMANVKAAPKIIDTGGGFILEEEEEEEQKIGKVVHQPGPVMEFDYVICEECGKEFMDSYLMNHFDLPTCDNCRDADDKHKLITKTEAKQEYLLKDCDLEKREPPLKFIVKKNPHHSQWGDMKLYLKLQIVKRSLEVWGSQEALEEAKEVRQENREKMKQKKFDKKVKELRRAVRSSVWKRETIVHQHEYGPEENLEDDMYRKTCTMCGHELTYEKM

[12] = target: T4, XPA (C4) zinc finger peptide; type: binding; remark: listed apart in the source
[13] = target: T3, PARP-1 (C3H1) zinc finger peptide; type: binding; remark: listed apart in the source
C2H2 complex = conditions: cited from earlier work
PARP [14] = target: T6, PARP; design: host or cells: human keratinocytes; conditions: cited from earlier work
C3H1 and C4 complexes = conditions: cited from earlier work

With `C[As](O)O` [MMA(III), monomethylarsonous acid] the “cobalt binding (absorbance at 660 nm) after incubation with arsenical” value (shortened to “cobalt binding (absorbance at 660 nm)”) [1] was “concentration-dependent decrease in cobalt binding to all three peptides”, the “As—S bond formation (A270)” value [2] was “A270 values increased for all three types of zinc fingers” and the “zinc content in protein” value (APTX protein) was “caused zinc loss from all three configurations of zinc finger proteins”. The “binding to zinc finger peptide by MALDI-TOF mass spectrometry” value (“binding to zinc finger peptide” for short) [3] was “also bound to the PARP-1 zinc finger”, the “As—S bond formation (A270)” value [4] was “A270 values increased for all three types of zinc fingers” and the “binding to zinc finger peptide” value [5] was “bound to APTX zinc finger peptide”. The “zinc content in protein” value (PARP-1 protein) was “caused zinc loss from all three configurations of zinc finger proteins”, the “cobalt binding (absorbance at 660 nm)” value [6] was “concentration-dependent decrease in cobalt binding to all three peptides” and the “As—S bond formation (A270)” value [7] was “A270 values increased for all three types of zinc fingers”. The PARP activity inhibition (PARP [8]) was “about 30%”, the “tertiary structure change (fluorescent intensity at 350 nm)” value (“tertiary structure change” for short) [9] was “decreased in a concentration-dependent manner” and the “cobalt binding (absorbance at 660 nm)” value [10] was “concentration-dependent decrease in cobalt binding to all three peptides”. For the same compound, the “binding to zinc finger peptide” value [11] was “bound to the XPA zinc finger”, the “zinc content in protein” value (XPA protein) was “caused zinc loss from all three configurations of zinc finger proteins” and the “tertiary structure change” value [12] was “alters the tertiary structure of all 3 conformations of zinc fingers”. For the same compound, the “tertiary structure change” value [13] was “alters the tertiary structure of all 3 conformations of zinc fingers”.
With sodium arsenite the “zinc content in protein” value (APTX protein) was “selectively displaced zinc from PARP-1 and XPA proteins”, the “binding to zinc finger peptide” value [3] was “bound with PARP-1 and XPA zinc finger peptides” and the “As—S bond formation (A270)” value [4] was “A270 values increased in a concentration-dependent manner”. The “binding to zinc finger peptide” value [5] was “showed no binding to the APTX zinc finger”, the “zinc content in protein” value (PARP-1 protein) was “selectively displaced zinc from PARP-1 and XPA proteins” and the “cobalt binding (absorbance at 660 nm)” value [6] was “decreased subsequent cobalt binding in a concentration-dependent manner”. For the same compound, the “As—S bond formation (A270)” value [7] was “A270 values increased in a concentration-dependent manner”, the “tertiary structure change” value [9] was “showed no effect” and the “stability of arsenite bound complex in kinetic studies” value (C2H2 complex) was 1.29 min. For the same compound, the “cobalt binding (absorbance at 660 nm)” value [10] was “decreased subsequent cobalt binding in a concentration-dependent manner”, the “binding to zinc finger peptide” value [11] was “bound with PARP-1 and XPA zinc finger peptides” and the PARP activity inhibition (PARP [14]) was “up to 90%”. The “zinc content in protein” value (XPA protein) was “selectively displaced zinc from PARP-1 and XPA proteins”, the “tertiary structure change” value [12] was “selectively disrupted the tertiary structure of C3H1 and C4 zinc fingers” and the “stability of arsenite bound complex in kinetic studies” value (C3H1 and C4 complexes) was 155 min. The “tertiary structure change” value [13] was “selectively disrupted the tertiary structure of C3H1 and C4 zinc fingers”.
